The source of these data is US9701707B2, “Methods of synthesizing substituted purine compounds” (Epizyme, Inc., priority 2013, dated 2017).

A short description of series [1]: Dynamic vapor sorption (DVS) hygroscopicity. Format: physicochemical. The following applies: at 80% RH, 25° C. The procedure:
Form A may be observed EP-1. […] (peak temperature) which is accompanied by 5.9 wt % weight loss up to ˜150° C. in the TGA curve (FIG. 3). […] Form A is hygroscopic as indicated by water adsorption of 5.8 wt % at 80% RH measured by dynamic vapor sorption (DVS) (FIG. 4). A solid is considered moderately hygroscopic when water uptake at 25° C./80% RH is between 2-15 wt % based on criteria of European Pharmacopeia.
Form B of EP-1 trihydrate (x is 3) is a trihydrate as confirmed by single crystal analysis. The experimental XRPD pattern of Form B matches well with the simulated one from single crystal data (FIG. 6). This was also confirmed by DSC and TGA data (FIG. 7 and FIG. 8, respectively). DSC data indicates Form B dehydrates at ˜132° C. […] Form B is slightly hygroscopic as evidenced by a weight change of ˜0.3% between 0% and 95% RH (FIG. 9), (data collection was programmed from 95% RH-0% RH-95% RH at a step size of 10% RH at 25° C.).

Series [2] in a line: Solubility in Simulated Gastric Fluid (SGF) at 37° C. It is filed as physicochemical. Here is the method:
To study if Form A and Form B would perform differently in stomach, the solubilities of Form A and Form B were measured in Simulated Gastric Fluid (SGF, see below for SGF preparation) at 37° C. In these experiments, about 100 mg Form A and 50 mg Form B were weighed into 20-ml glass vials, followed by addition of 4 ml SGF into each vial and the samples were stirred at 37° C. Aliquots were taken for solubility determination using HPLC after 15, 30, and 60 min, respectively. The remaining solids after each time point were subject to XRPD analysis.
Weigh appropriate amount of hydrochloride (HCl) and sodium chloride (NaCl) into a 1-L flask followed by addition of 1-L deionized water. The mixture was stirred until all solids are dissolved. Check pH value with a pH-meter and adjust the pH to 1.8 with HCl (1N) or NaOH (1N).

SMILES strings stand for the structures. Some results are limits rather than exact numbers.

The solubility is how much of the substance goes into solution per volume. In turn, `CC(C)N(CC1O[C@@H](n2cnc3c(N)ncnc32)[C@H](O)[C@@H]1O)C1CC(CCc2nc3cc(C(C)(C)C)ccc3[nH]2)C1` (stereo partly drawn) [Form A, (2R,3R,4S,5R)-2-(6-amino-9H-purin-9-yl)-5-((((1r,3S)-3-(2-(5-(tert-butyl)-1H-benzo[d]imidazol-2-yl)ethyl)cyclobutyl)(isopropyl)amino)methyl)tetrahydrofuran-3,4-diol hydrate] came in with a water adsorption in series [1] of 5.8 wt %. The “time of conversion to Form B in SGF” value in series [2] is given as no more than 15 min. Besides, the solubility at 15 min in series [2] (Simulated Gastric Fluid (SGF), pH 1.8, simulated gastric fluid, thermodynamic from solid, 15 min, calculated using free base content) was 5400 µg/mL. For the same molecule, the solubility at 30 min in series [2] (Simulated Gastric Fluid (SGF), pH 1.8, simulated gastric fluid, thermodynamic from solid, 30 min, calculated using free base content) was 5500 µg/mL. Besides, the solubility at 60 min in series [2] (Simulated Gastric Fluid (SGF), pH 1.8, simulated gastric fluid, thermodynamic from solid, 60 min, calculated using free base content) is 5300 µg/mL.
